Measurements taken from patent publication US20260248784A1, “BTK Degrader and Use Thereof” (JIANGSU VCARE PHARMATECH CO., LTD., priority 2023, published 2026).

system: mino cells; experiment: Activity test in Mino cells (CCK8 proliferation inhibition); assay type: cell-based; settings: 3 days, read-out: Cell inhibition IC50
Description: Cell culture: mino cells (culture conditions: RPMI1640 medium+15% FBS, 37° C., 5% CO2). Cell plating: The cells subcultured into the logarithmic growth phase were collected and transferred into a centrifuge tube, and centrifuged at 800 rpm for 5 min. The cells were resuspended in complete medium and counted. The cells were diluted and adjusted to a final concentration of 200000 cells/mL. The cells were then seeded into a 96-well plate with 100 μL per well. Cell administration: Each group of drug solutions was added into the 96-well plate, 100 μL per well, n=3 for each drug concentration. Meanwhile, negative wells (n=6) and blank wells (n=3) were set up. The 96-well plate was incubated in the incubator for further 3 days. CCK8 reagent was added to the 96-well plate, 20 μL per well, and then the plate was placed in the incubator for further 4 h. The absorbance of the solution was measured at a wavelength of 450 nm using an enzyme reader. The proliferation inhibition rate was calculated and the half inhibitory concentration IC50 value was calculated.

Compound	IC50
COc1ccc(F)cc1C(=O)NCc1ccc(-c2nn(-c3ccc(N4CCN(CC5CCN(c6ccc(N7CCC(=O)NC7=O)c(C)c6)CC5)CC4)nc3)c3ncnc(N)c23)cc1C [Compound I-4]	62 nM

same assay, conditions: Homo sapiens, 72 h, 3 days, read-out: Cell inhibition IC50

Compound	IC50
COc1ccc(F)cc1C(=O)NCc1ccc(-c2nn(-c3ccc(N4CCN(CC5CCN(c6ccc(N7CCC(=O)NC7=O)cc6)CC5)CC4)nc3)c3ncnc(N)c23)cc1 [Compound I-3, N-(4-(4-amino-1-(6-(4-((1-(4-(2,4-dioxotetrahydropyrimidin-1(2H)-yl)phenyl)piperidin-4-yl)methyl)piperazin-1-yl)pyridin-3-yl)-1H-pyrazolo[3,4-d]pyrimidin-3-yl)benzyl)-5-fluoro-2-methoxybenzamide]	16 nM
COc1ccc(F)cc1C(=O)NCc1ccc(-c2nn(-c3ccc(C4CCN(CC5CCN(c6ccc(N7CCC(=O)NC7=O)c(C)c6)CC5)CC4)cc3)c3ncnc(N)c23)cc1 [Compound I-5, N-(4-(4-amino-1-(4-(1-((1-(4-(2,4-dioxotetrahydropyrimidin-1(2H)-yl)-3-methylphenyl)piperidin-4-yl)methyl)piperidinyl)phenyl)-1H-pyrazolo[3,4-d]pyrimidin-3-yl)benzyl)-5-fluoro-2-methoxybenzamide]	84 nM
COc1ccc(F)cc1C(=O)NCc1ccc(-c2nn(-c3ccc(C4CCN(CC5CCN(c6ccc(N7CCC(=O)NC7=O)cc6)CC5)CC4)cc3)c3ncnc(N)c23)cc1 [Compound I-6, N-(4-(4-amino-1-(4-(1-((1-(4-(2,4-dioxotetrahydropyrimidin-1(2H)-yl)phenyl)piperidin-4-yl)methyl)piperidinyl)phenyl)-1H-pyrazolo[3,4-d]pyrimidin-3-yl)benzyl)-5-fluoro-2-methoxybenzamide]	16 nM
COc1ccc(F)cc1C(=O)NCc1ccc(-c2nn(-c3ccc(C4CCN(CC5CCN(c6ccc(N7CCC(=O)NC7=O)c(C)c6)CC5)CC4)nc3)c3ncnc(N)c23)cc1 [Compound I-7, N-(4-(4-amino-1-(6-(1-((1-(4-(2,4-dioxotetrahydropyrimidin-1(2H)-yl)-3-methylphenyl)piperidin-4-yl)methyl)piperidin-4-yl)pyridin-3-yl)-1H-pyrazolo[3,4-d]pyrimidin-3-yl)benzyl)-5-fluoro-2-methoxybenzamide]	< 50 nM
COc1ccc(F)cc1C(=O)NCc1ccc(-c2nn(-c3ccc(N4CCN(CC5CCN(c6ccc(N7CCC(=O)NC7=O)c(C)c6)CC5)CC4)cc3)c(N)c2C(N)=O)cc1 [Compound I-8]	< 25 nM
COc1ccc(F)cc1C(=O)NCc1ccc(-c2nn(-c3ccc(N4CCN(CC5CCN(c6ccc(N7CCC(=O)NC7=O)c(C)c6)CC5)CC4)cc3)c3ncnc(N)c23)cc1 [Compound I-9]	< 25 nM
COc1ccc(F)cc1C(=O)NCc1ccc(-c2nn(-c3ccc(C4CCN(CC5CCN(c6ccc(N7CCC(=O)NC7=O)c(C)c6)CC5)CC4)cc3)c(N)c2C(N)=O)cc1 [Compound I-11, 5-amino-1-(4-(1-(1-(4-(2,4-dioxotetrahydropyrimidin-1(2H)-yl)-3-methylphenyl)piperidin-4-yl)methyl)piperidin-4-yl)phenyl)-3-(4-(((5-fluoro-2-methoxybenzamido)methyl)phenyl)-1H-pyrazole-4-carboxamide]	< 25 nM
COc1ccc(F)cc1C(=O)NCc1ccc(-c2nn(-c3ccc(C4CCN(CC5CCN(c6ccc(N7CCC(=O)NC7=O)c(C)c6)CC5)CC4)nc3)c(N)c2C(N)=O)cc1 [Compound I-12]	< 25 nM
COc1ccc(F)cc1C(=O)NCc1ccc(-c2nn(-c3ccc(C4CCN(CC5CCN(c6ccc(C7CCC(=O)NC7=O)cc6)CC5)CC4)nc3)c3ncnc(N)c23)cc1 (stereo not drawn) [Compound I-24]	< 100 nM
COc1ccc(F)cc1C(=O)NCc1ccc(-c2nc(-c3ccc(N4CCN(CC5CCN(c6ccc(N7CCC(=O)NC7=O)c(C)c6)CC5)CC4)nc3)n3ccnc(N)c23)cc1 [Compound I-30]	< 50 nM
COc1ccc(F)cc1C(=O)NCc1ccc(-c2nn(-c3ccc(N4CCN(CC5CCN(c6ccc(N7CCC(=O)NC7=O)c(C)c6)CC5)C[C@H]4C)nc3)c3ncnc(N)c23)cc1 [Compound I-41]	< 25 nM
